Source: patent US10168342B2, “Lipid probes and uses thereof” (THE SCRIPPS RESEARCH INSTITUTE, priority 2015, dated 2019)
Where two headings read alike, the source gives them in different places.

How the values were obtained:
[1] = target: T1, AEA-DA lipid probe targets in Neuro2a cells (Mus musculus, UniProt Q07646)
T1 sequence (Q07646 1-335): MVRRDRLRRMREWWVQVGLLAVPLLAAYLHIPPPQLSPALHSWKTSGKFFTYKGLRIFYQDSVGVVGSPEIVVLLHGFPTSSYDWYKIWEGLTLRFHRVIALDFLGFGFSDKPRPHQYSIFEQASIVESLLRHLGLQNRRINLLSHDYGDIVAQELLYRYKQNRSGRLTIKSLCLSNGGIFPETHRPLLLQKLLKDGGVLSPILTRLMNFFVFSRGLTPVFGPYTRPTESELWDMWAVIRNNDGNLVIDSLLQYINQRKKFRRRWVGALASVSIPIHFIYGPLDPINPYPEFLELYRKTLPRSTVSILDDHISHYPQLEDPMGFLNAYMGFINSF

[2] = target: AEA-DA lipid probe targets in Neuro2a cells (Mus musculus, UniProt Q60716)
Sequence of AEA-DA lipid probe targets in Neuro2a cells (Mus musculus, UniProt Q60716) (Q60716 24-537): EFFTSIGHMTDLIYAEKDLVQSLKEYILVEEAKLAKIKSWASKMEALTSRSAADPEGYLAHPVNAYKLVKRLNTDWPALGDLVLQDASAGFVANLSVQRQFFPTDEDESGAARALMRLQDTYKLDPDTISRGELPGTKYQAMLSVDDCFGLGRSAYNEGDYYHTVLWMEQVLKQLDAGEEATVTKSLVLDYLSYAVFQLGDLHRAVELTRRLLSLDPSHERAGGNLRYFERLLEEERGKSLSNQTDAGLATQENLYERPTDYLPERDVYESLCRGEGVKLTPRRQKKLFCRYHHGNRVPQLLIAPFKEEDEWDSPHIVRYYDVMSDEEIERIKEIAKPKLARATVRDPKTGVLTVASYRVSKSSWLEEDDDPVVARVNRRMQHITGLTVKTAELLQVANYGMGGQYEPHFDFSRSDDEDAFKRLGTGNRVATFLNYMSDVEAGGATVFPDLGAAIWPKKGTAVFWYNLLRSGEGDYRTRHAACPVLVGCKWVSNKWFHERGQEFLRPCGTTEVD

[3] = target: T2, AEA-DA lipid probe targets in Neuro2a cells (Mus musculus, UniProt Q61753)
T2 sequence (Q61753 1-533): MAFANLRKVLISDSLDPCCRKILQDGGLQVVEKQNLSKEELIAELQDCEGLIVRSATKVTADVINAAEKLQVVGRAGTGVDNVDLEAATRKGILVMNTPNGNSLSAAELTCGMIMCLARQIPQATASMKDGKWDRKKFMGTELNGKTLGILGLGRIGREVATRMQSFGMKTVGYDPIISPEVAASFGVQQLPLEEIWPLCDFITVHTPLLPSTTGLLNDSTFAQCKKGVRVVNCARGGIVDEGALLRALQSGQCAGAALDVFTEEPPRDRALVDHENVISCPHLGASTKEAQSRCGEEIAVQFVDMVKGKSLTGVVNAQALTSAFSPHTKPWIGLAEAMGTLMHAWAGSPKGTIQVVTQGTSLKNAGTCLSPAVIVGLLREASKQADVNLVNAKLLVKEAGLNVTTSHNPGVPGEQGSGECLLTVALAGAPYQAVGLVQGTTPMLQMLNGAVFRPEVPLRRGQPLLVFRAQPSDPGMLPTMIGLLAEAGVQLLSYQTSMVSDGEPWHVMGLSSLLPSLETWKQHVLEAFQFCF

[4] = target: T3, AEA-DA lipid probe targets in Neuro2a cells (Mus musculus, UniProt Q7TMK9)
T3 sequence (Q7TMK9 1-623): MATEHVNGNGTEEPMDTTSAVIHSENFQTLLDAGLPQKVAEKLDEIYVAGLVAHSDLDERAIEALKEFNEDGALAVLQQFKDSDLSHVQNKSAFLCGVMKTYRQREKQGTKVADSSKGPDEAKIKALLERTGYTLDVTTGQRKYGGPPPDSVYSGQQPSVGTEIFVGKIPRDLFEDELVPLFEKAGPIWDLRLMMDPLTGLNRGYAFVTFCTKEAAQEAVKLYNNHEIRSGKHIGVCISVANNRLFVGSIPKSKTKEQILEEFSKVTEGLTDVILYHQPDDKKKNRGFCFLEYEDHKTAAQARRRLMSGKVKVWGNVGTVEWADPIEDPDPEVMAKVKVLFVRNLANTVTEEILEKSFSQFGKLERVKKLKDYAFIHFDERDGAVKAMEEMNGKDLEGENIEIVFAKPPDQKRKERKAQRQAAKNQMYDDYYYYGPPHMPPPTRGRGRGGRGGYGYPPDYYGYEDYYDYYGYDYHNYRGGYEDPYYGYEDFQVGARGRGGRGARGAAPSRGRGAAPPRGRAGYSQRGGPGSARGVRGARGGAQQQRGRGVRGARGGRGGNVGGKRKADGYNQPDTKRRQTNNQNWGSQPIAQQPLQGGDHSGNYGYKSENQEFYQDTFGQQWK

[5] = target: T4, AEA-DA lipid probe targets in Neuro2a cells (Mus musculus, UniProt Q924Z4); settings: for SILAC ratio, CERS2 (Q924Z4): Neuro2a cells, AEA-DA probe
T4 sequence (Q924Z4 1-380): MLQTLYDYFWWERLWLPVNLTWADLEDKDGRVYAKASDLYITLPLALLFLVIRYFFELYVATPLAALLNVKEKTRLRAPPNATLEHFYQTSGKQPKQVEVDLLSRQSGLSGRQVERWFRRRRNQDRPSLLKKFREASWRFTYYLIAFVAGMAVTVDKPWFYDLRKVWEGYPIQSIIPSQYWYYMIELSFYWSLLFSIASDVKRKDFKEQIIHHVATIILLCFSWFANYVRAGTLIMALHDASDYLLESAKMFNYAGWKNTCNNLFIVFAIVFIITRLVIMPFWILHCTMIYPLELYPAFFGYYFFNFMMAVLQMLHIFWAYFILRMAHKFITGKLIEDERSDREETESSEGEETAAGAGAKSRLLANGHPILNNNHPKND

[6] = target: T5, AEA-DA lipid probe targets in Neuro2a cells (Mus musculus, UniProt Q99JY4); settings: for SILAC ratio, TRABD (Q99JY4): Neuro2a cells, AEA-DA probe
T5 sequence (Q99JY4 1-376): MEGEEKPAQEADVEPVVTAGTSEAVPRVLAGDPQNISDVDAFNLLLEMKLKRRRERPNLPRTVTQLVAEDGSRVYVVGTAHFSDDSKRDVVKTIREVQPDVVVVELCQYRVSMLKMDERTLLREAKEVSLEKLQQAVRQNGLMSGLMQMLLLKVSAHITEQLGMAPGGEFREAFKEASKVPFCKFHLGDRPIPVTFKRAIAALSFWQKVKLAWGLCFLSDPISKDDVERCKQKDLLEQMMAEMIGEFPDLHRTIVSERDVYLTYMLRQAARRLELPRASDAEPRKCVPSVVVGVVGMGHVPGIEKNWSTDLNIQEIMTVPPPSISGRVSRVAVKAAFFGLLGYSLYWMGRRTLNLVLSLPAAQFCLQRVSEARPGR

[7] = target: AEA-DA lipid probe targets in Neuro2a cells (Mus musculus, UniProt Q9Z0V7)
Sequence of AEA-DA lipid probe targets in Neuro2a cells (Mus musculus, UniProt Q9Z0V7) (Q9Z0V7 whole entry): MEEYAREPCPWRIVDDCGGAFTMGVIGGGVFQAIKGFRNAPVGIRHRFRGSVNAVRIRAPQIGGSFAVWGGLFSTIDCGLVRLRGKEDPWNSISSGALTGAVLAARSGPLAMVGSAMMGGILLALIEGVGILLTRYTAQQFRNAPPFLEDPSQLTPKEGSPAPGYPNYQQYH

[8] = tested on: AEA-DA lipid probe targets in Neuro2a cells; settings: for SILAC ratio, GM20425 (E9Q035): Neuro2a cells, AEA-DA probe
[9] = competitor 25 μM, first Tmpo line (r51)
[10] = competitor 25 μM, second Tmpo line (r55)

CN1CCN(C(=O)c2c(-c3ccccc3)c3cc([N+](=O)[O-])ccc3n2C)CC1 [KML110, (1-Methyl-5-nitro-3-phenyl-1H-indol-2-yl)(4-methylpiperazin-1-yl)methanone]
SILAC ratio Mest ([1]; competitor 25 μM): 1.3 | SILAC ratio P4ha2 ([2]; competitor 25 μM): 1.3 | SILAC ratio Phgdh ([3]; competitor 25 μM): 1.5 | SILAC ratio Syncrip ([4]; competitor 25 μM): 1.4 | SILAC ratio, Cers2 ([5]; competitor 25 μM): 2.2 | SILAC ratio, Trabd ([6]; competitor 25 μM): 1.5 | SILAC ratio, Timm17b ([7]; competitor 25 μM): 1.8 | SILAC ratio Akr1c12 ([8]; competitor 25 μM): 1.2 | SILAC ratio H2-K1 ([8]; competitor 25 μM): 1.6 | SILAC ratio Nup205 ([8]; competitor 25 μM): 1.2 | SILAC ratio Uncharacterized ([8]; competitor 25 μM): 1.1 | SILAC ratio, Gm20425 ([8]; competitor 25 μM): 1.5 | SILAC ratio, Gm20671 ([8]; competitor 25 μM): 1.4 | SILAC ratio, Tmpo [8, 9]: 1.5 | SILAC ratio, Tmpo [8, 10]: 1.5

CN1CCN(C(=O)c2[nH]c3ccc([N+](=O)[O-])cc3c2-c2ccccc2)CC1 [MJN228, (4-Methylpiperazin-1-yl)(5-nitro-3-phenyl-1H-indol-2-yl)methanone]
SILAC ratio Mest ([1]; competitor 10 μM): 1.2 | SILAC ratio Mest ([1]; competitor 25 μM): 1.4 | SILAC ratio Mest ([1]; competitor 50 μM): 1.3 | SILAC ratio Mest ([1]; competitor 100 μM): 1.6 | SILAC ratio P4ha2 ([2]; competitor 10 μM): 1.2 | SILAC ratio P4ha2 ([2]; competitor 25 μM): 1.3 | SILAC ratio P4ha2 ([2]; competitor 50 μM): 1.0 | SILAC ratio P4ha2 ([2]; competitor 100 μM): 1.0 | SILAC ratio Phgdh ([3]; competitor 10 μM): 1.2 | SILAC ratio Phgdh ([3]; competitor 25 μM): 1.1 | SILAC ratio Phgdh ([3]; competitor 50 μM): 0.9 | SILAC ratio Phgdh ([3]; competitor 100 μM): 1.1 | SILAC ratio Syncrip ([4]; competitor 10 μM): 0.9 | SILAC ratio Syncrip ([4]; competitor 25 μM): 1.2 | SILAC ratio Syncrip ([4]; competitor 50 μM): 1.3 | SILAC ratio Syncrip ([4]; competitor 100 μM): 1.1 | SILAC ratio, CERS2 (Q924Z4) ([5]; competitor 25 μM): 3.1 | SILAC ratio, Cers2 ([5]; competitor 10 μM): 2.0 | SILAC ratio, Cers2 ([5]; competitor 25 μM): 3.1 | SILAC ratio, Cers2 ([5]; competitor 50 μM): 5.2 | SILAC ratio, Cers2 ([5]; competitor 100 μM): 6.8 | SILAC ratio, TRABD (Q99JY4) ([6]; competitor 25 μM): 1.3 | SILAC ratio, Trabd ([6]; competitor 10 μM): 1.1 | SILAC ratio, Trabd ([6]; competitor 25 μM): 1.3 | SILAC ratio, Trabd ([6]; competitor 50 μM): 1.4 | SILAC ratio, Trabd ([6]; competitor 100 μM): 1.7 | SILAC ratio, Timm17b ([7]; competitor 10 μM): 1.3 | SILAC ratio, Timm17b ([7]; competitor 25 μM): 1.5 | SILAC ratio, Timm17b ([7]; competitor 50 μM): 2.2 | SILAC ratio, Timm17b ([7]; competitor 100 μM): 3.6 | SILAC ratio, GM20425 (E9Q035) ([8]; competitor 25 μM): 1.7 | SILAC ratio Nup205 ([8]; competitor 10 μM): 1.0 | SILAC ratio Uncharacterized ([8]; competitor 10 μM): 1.1 | SILAC ratio, Akr1b10 ([8]; competitor 10 μM): 2.1 | SILAC ratio, Gm20425 ([8]; competitor 10 μM): 1.3 | SILAC ratio, Tmpo ([8]; competitor 10 μM, first Tmpo line (r51)): 1.1 | SILAC ratio, Tmpo ([8]; competitor 10 μM, second Tmpo line (r55)): 1.1 | SILAC ratio H2-K1 ([8]; competitor 25 μM): 1.1 | SILAC ratio Nup205 ([8]; competitor 25 μM): 1.2 | SILAC ratio Uncharacterized ([8]; competitor 25 μM): 1.6 | SILAC ratio, Gm20425 ([8]; competitor 25 μM): 1.7 | SILAC ratio, Gm20671 ([8]; competitor 25 μM): 1.4 | SILAC ratio, Tmpo [8, 9]: 1.4 | SILAC ratio, Tmpo [8, 10]: 1.4 | SILAC ratio Nup205 ([8]; competitor 50 μM): 1.1 | SILAC ratio, Akr1b10 ([8]; competitor 50 μM): 2.6 | SILAC ratio, Gm20425 ([8]; competitor 50 μM): 1.7 | SILAC ratio, Tmpo ([8]; competitor 50 μM, first Tmpo line (r51)): 1.4 | SILAC ratio, Tmpo ([8]; competitor 50 μM, second Tmpo line (r55)): 1.3 | SILAC ratio Nup205 ([8]; competitor 100 μM): 1.2 | SILAC ratio Uncharacterized ([8]; competitor 100 μM): 3.0 | SILAC ratio, Akr1b10 ([8]; competitor 100 μM): 3.2 | SILAC ratio, Gm20425 ([8]; competitor 100 μM): 2.9 | SILAC ratio, Tmpo ([8]; competitor 100 μM, first Tmpo line (r51)): 2.1 | SILAC ratio, Tmpo ([8]; competitor 100 μM, second Tmpo line (r55)): 2.0

C=CCN(C)CCCCCCOc1ccc(C(=O)c2ccc(Br)cc2)c(F)c1 [Ro 48-8071, reference compound]
SILAC ratio Mest ([1]; competitor 25 μM): 1.2 | SILAC ratio P4ha2 ([2]; competitor 25 μM): 1.0 | SILAC ratio Phgdh ([3]; competitor 25 μM): 1.0 | SILAC ratio Syncrip ([4]; competitor 25 μM): 0.8 | SILAC ratio, CERS2 (Q924Z4) ([5]; competitor 25 μM): 1.6 | SILAC ratio, Cers2 ([5]; competitor 25 μM): 1.6 | SILAC ratio, TRABD (Q99JY4) ([6]; competitor 25 μM): 1.0 | SILAC ratio, Trabd ([6]; competitor 25 μM): 1.0 | SILAC ratio, Timm17b ([7]; competitor 25 μM): 2.8 | SILAC ratio, GM20425 (E9Q035) ([8]; competitor 25 μM): 1.2 | SILAC ratio Akr1c12 ([8]; competitor 25 μM): 0.9 | SILAC ratio H2-K1 ([8]; competitor 25 μM): 0.9 | SILAC ratio Nup205 ([8]; competitor 25 μM): 0.9 | SILAC ratio Uncharacterized ([8]; competitor 25 μM): 1.0 | SILAC ratio, Gm20425 ([8]; competitor 25 μM): 1.2 | SILAC ratio, Gm20671 ([8]; competitor 25 μM): 1.3 | SILAC ratio, Tmpo [8, 9]: 1.2 | SILAC ratio, Tmpo [8, 10]: 1.2
